Read-outs that look alike come from different tables or passages of the source.
Tests used:
Type in all cases: cell-based
hA2b = hA2b (Homo sapiens (Human), UniProt P29275); experiment: cAMP inhibition assay in hA2b/CHO cells; settings: adenosine stimulation, read-out: cAMP & FLIPR IC50 (nM) hA2b
Method: (§1) hA2a/CHO, hA2b/CHO and mA2a/CHO (Genscript) were plated at 5×10^3 cells/well into 384-well polystyrene plates at the day of experiment. Compounds were pre-incubated with cells for 30 min at 37° C., 5% CO2. Then […] adenosine was added to the cells and incubated for 30 min at 37° C., 5% CO2. Detection reagent (CISBIO) was added and the plates were incubated for 60 min at room temperature. The signal was captured by Envision.

hA2a = hA2a (Homo sapiens (Human), UniProt P29274); experiment: cAMP inhibition assay in hA2a/CHO cells; settings: adenosine stimulation, read-out: cAMP & FLIPR IC50 (nM) hA2a
hA2a, sequence (P29274 whole entry): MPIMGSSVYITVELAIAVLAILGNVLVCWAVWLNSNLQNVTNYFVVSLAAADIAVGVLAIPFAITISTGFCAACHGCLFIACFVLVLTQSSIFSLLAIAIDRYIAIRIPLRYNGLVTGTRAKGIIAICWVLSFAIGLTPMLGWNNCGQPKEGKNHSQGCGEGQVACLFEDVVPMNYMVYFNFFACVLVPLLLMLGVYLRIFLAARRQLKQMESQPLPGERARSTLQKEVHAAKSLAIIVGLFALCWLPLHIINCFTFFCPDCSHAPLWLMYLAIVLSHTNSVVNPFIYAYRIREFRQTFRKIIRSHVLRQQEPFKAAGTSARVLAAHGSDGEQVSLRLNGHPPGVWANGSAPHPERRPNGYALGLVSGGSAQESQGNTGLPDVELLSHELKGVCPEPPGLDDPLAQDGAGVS
Procedure, shortened: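 CHO cells expressing human A2a, human A2b or mouse A2a, 5×10^3 cells/well, pre-incubated with compound 30 min at 37 °C, then stimulated with […] adenosine 30 min at 37 °C. cAMP read after 60 min room-temperature incubation with detection reagent.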

mA2a = mA2a (Mus musculus (Mouse), UniProt Q60613); experiment: cAMP inhibition assay in mA2a/CHO cells; settings: adenosine stimulation, read-out: cAMP & FLIPR IC50 (nM) mA2a
mA2a, sequence (Q60613 whole entry): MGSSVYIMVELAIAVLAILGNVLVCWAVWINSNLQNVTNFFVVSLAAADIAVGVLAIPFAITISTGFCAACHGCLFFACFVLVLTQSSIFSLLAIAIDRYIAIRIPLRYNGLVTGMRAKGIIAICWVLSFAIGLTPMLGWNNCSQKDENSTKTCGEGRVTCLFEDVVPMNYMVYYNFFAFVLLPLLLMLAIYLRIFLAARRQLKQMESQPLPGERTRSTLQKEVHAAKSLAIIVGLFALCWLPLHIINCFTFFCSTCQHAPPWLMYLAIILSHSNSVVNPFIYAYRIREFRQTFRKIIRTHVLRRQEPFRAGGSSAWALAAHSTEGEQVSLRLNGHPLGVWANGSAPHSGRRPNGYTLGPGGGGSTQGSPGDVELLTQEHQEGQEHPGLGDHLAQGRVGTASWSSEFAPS
Method: as §1

hA1 = hA1 (Homo sapiens (Human), UniProt P30542); experiment: FLIPR inhibition assay in hADORA1/CHO (hA1 expressing) cells; settings: FLIPR calcium, adenosine stimulation
hA1, sequence (P30542 whole entry): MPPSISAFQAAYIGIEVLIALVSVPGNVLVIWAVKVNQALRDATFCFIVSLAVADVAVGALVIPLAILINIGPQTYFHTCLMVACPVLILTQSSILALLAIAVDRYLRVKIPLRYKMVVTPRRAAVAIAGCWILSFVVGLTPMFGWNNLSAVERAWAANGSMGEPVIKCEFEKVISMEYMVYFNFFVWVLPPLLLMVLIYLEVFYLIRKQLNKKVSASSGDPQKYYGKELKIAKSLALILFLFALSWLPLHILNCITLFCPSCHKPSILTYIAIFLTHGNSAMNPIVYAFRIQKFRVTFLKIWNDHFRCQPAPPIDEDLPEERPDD
Procedure, shortened: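 CHO cells expressing human A1 were plated at 1×10^4 cells/well the day before, then loaded with FLIPR Calcium 5 dye for 60 min at 37 °C, 5% CO2. Compounds were added at several concentrations for 400 s before stimulation with […] adenosine. The calcium signal was recorded by FLIPR.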

[1] = hADORA1/CHO cells, read-out: cAMP & FLIPR IC50 (nM) hA1

hA2b, sequence (P29275 whole entry): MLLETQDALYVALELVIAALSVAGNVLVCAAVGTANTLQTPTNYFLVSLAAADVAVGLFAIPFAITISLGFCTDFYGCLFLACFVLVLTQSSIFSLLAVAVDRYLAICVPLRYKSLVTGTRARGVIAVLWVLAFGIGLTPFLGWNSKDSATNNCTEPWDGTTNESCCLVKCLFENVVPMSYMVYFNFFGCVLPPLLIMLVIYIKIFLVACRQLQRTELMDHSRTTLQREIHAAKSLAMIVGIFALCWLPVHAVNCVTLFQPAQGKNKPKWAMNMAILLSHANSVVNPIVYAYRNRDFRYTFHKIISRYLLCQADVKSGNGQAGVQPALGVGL

SMILES	IC50 (hA2b) [nM]	IC50 (hA2a) [nM]	IC50 (mA2a) [nM]	IC50 (hA1; [1]) [nM]	IC50 (hA1; cAMP & FLIPR IC50 (nM) hA1, hADORA1/CHO cells) [nM]
Cc1cnc2ccc(-c3c(-c4ccc(F)cc4)nc(N)n4nc(C[C@@H]5CCCN5C)nc34)cn12 [Example 122, (S)-7-(4-fluorophenyl)-8-(3-methylimidazo[1,2-a]pyridin-6-yl)-2-((l-methylpyrrolidin-2-yl)methyl)-[1,2,4]triazolo[1,5-c]pyrimidin-5-amine]	93.5	0.3	2.6	67.7	–
Cc1ccc(-c2nc(N)n3nc(Cc4c(F)cccc4F)nc3c2-c2ccc(=O)n(C)c2)cn1 [Example 24, 5-[5-amino-2-[(2,6-difluorophenyl)methyl]-7-(6-methylpyridin-3-yl)-[1,2,4]triazolo[1,5-c]pyrimidin-8-yl]-1-methyl-1,2-dihydropyridin-2-one]	631	58	162	12	–
Nc1nc(-c2ccc(F)cc2)c(-c2ccc3nccn3c2)c2nc(Cc3ncccc3OC(F)F)nn12 [Example 73]	4.8	0.1	0.4	–	11
Cn1cc(-c2c(-c3ccc(F)cc3)nc(N)n3nc(Cc4nccs4)nc23)ccc1=O [Example 42, 5-[5-amino-7-(4-fluorophenyl)-2-[(1,3-thiazol-2-yl)methyl]-[1,2,4]triazolo[1,5-c]pyrimidin-8-yl]-1-methyl-1,2-dihydropyridin-2-one]	206	7.9	13	6.6	–
Nc1nc(-c2ccc(F)cc2)c(-c2ccc(=O)n(CCO)c2)c2nc(Cc3ncccc3F)nn12 [Example 95, 5-(5-amino-7-(4-fluorophenyl)-2-((3-fluoropyridin-2-yl)methyl)-[1,2,4]triazolo[1,5-c]pyrimidin-8-yl)-l-(2-hydroxyethyl)pyridin-2(1H)-one]	241	3.7	8.9	27	–
Cc1cnc2ccc(-c3c(N4CCCC4)nc(N)n4nc(Cc5ncccc5F)nc34)cn12 [Example 101, 2-((3*fluoropyridin-2-yl)methyl)-8-(3-methylimidazo[1,2-a]pyridin-6-yl)-7-(pyrrolidin-1-yl)-[1,2, 4]triazolo[l,5-c]pyrimidin-5-amine]	203	8.2	58.1	6.6	–
Cn1cc(-c2c(-c3ccc(Cl)cc3)nc(N)n3nc(Cc4ncccc4F)nc23)ccc1=O [Example 56, 5-(5-amino-7-(4-chlorophenyl)-2-((3-fluoropyridin-2-yl)methyl)-[1,2,4]triazolo[1,5-c]pyrimidin-8-yl)-l-methylpyridin-2(1H)-one]	142	22	36	34	–
Cn1cc(-c2c(-c3cccc(F)c3)nc(N)n3nc(Cc4ncccc4F)nc23)ccc1=O [Example 40, 5-(5-amino-7-(3-fluorophenyl)-2-((3-fluoropyridin-2-yl)methyl)-[1,2,4]triazolo[1,5-c]pyrimidin-8-yl)-1-methylpyridin-2(1H)-one]	72	5.2	15	18	–
Cn1nc(-c2c(-c3ccc(F)cc3)nc(N)n3nc(Cc4ncccc4F)nc23)ccc1=O [Example 30, 6-(5-amino-7-(4-fluorophenyl)-2-((3-fluoropyridin-2-yl)methyl)-[1,2,4]triazolo[1,5-f]pyrimidin-8-yl)-2-methylpyridazin-3(2H)-one]	160	5.9	25	16	–
Cc1cc(-c2c(-c3ncco3)nc(N)n3nc(Cc4ncccc4F)nc23)cc(Cl)n1 [Example 82, 8-(2-chloro-6-methylpyridin-4-yI)-2-((3-fluoropyridin-2-yl)methyl)-7-(oxazol-2-yl)-[l,2,4]triazolo [1,5-c]pyrimidin-5-amine]	2910	25	63	2640	–
CNc1cc(-c2c(-c3ccc(F)cc3)nc(N)n3nc(Cc4ncccc4F)nc23)ccn1 [Example 43, 7-(4-fluorophenyl)-2-((3-fluoropyridin-2-yl)methyl)-8-(2-(methylamino)pyridin-4-yl)-[1,2,4]triazolo[1,5-c]pyrimidin-5-amine]	12	19	41	24	–
Cn1cc(-c2c(Cl)nc(N)n3nc(Cc4c(F)cccc4F)nc23)ccc1=O [Example 28, 5-(5-amino-7-chloro-2-(2,6-difluorobenzyl)-[1,2,4]triazolo[1,5-c]pyrimidin-8-yl)-1-methylpyridin-2(1H)-one]	6420	158	217	1150	–
Nc1nc(-c2ccc(F)cc2)c(-c2ccc3nccnc3c2)c2nc(Cc3ncccc3F)nn12 [Example 96, 7-(4-fluorophenyl)-2-((3-fluoropyridin-2-yl)methyl)-8-(quinoxalin-6-yl)-[l,2,4]triazolo[l,5-c] pyrimidin-5-amine]	3800	25	123	681	–
Nc1nc(-c2ccc(F)cc2)c(-c2ccc3nc[nH]c3c2)c2nc(Cc3ncccc3F)nn12 [Example 75, 8-(1H-benzo[d]imidazol-6-yl)-7-(4-fluorophenyl)-2-((3-fluoropyridin-2-yl)methyl)-[1,2,4]triazolo [l,5-c]pyrimidin-5-amine]	38	1.7	17	31	–
Nc1nc(-c2ccc(F)cc2)c(-c2ccc3ncccc3c2)c2nc(Cc3ncccc3F)nn12 [Example 89, 7-(4-fluorophenyl)-2-[(3-fluoropyridin-2-yl)methyl]-8-(quinolin-6-yl)-[1,2,4]triazolo[1,5-c]pyrimidin-5-amine]	82	0.4	1.3	132	–
CC(C)n1cc(-c2c(-c3ncco3)nc(N)n3nc(Cc4ncccc4F)nc23)ccc1=O [Example 80, 5-(5-amino-2-((3-fluoropyridin-2-yl)methyl)-7-(oxazol-2-yl)-[1,2,4]triazolo[1,5-c]pyrimidin-8-yl)-1-isopropylpyridin-2(1H)-one]	186	3.6	4.9	25	–
Cn1cc(-c2c(-c3nccs3)nc(N)n3nc(Cc4c(F)cccc4F)nc23)ccc1=O [Example 44, 5-(5-amino-2-(2,6-difluorobenzyl)-7-(thiazol-2-yl)-[1,2,4]triazolo[1,5-c]pyrimidin-8-yl)-l-methyl pyridin-2(lH)-one]	97	4.3	5.9	13	–
Cn1cc(-c2c(-c3ccc(C#N)cc3)nc(N)n3nc(Cc4ncccc4F)nc23)ccc1=O [Example 57, 4-(5-amino-2-((3-fluoropyridin-2-yl)methyl)-8-(1-methyl-6-oxo-1,6-dihydropyridin-3-yl)-[1,2,4]triazolo[l,5-c]pyrimidin-7-yl)benzonitrile]	399	120	219	76	–
Cn1cc(-c2c(-c3ccccn3)nc(N)n3nc(Cc4c(F)cccc4F)nc23)ccc1=O [Example 92, 5-[5-amino-2-[(2,6-difluorophenyl)methyl]-7-(pyridin-2-yl)-[1,2,4]triazolo[1,5-c]pyrimidin-8-yl]-1-methyl-1,2-dihydropyridin-2-one]	680	8	11	13	–
COc1ccccc1-c1nc(N)n2nc(Cc3ncccc3F)nc2c1-c1ccc(=O)n(C)c1 [Example 98, 5-(5-amino-2-((3-fluoropyridin-2-yl)methyl)-7-(2-methoxyphenyl)-[1,2,4]triazolo[1,5-c]pyrimidin-8-yl)-1-methylpyridin-2(1H)-one]	1540	88	224	333	–
Cn1cnc2ccc(-c3c(-c4ccc(F)cc4)nc(N)n4nc(Cc5ncccc5F)nc34)cc21 [Example 69, 7-(4-fluorophenyl)-2-((3-fluoropyridin-2-yl)methyl)-8-(1-methyl-1H-benzo[d]imidazol-6-yl)-[1,2, 4]triazolo[l,5-c]pyrimidin-5-amine]	4.69	0.1	0.3	22	–
Cc1cnc2ccc(-c3c(-c4ncco4)nc(N)n4nc(CC5CCOC5)nc34)cn12 (single isomer, unassigned) [Example 107-1, 8-(3-methylimidazo[1,2-a]pyridin-6-yl)-7-(oxazol-2-yl)-2-((tetrahydrofuran-3-yl)methyl)-[1,2,4]triazolo[1,5-f]pyrimidin-5-amine]	416	0.5	32.7	54.6	–
Cn1cc(-c2c(-c3ccc(F)cc3)nc(N)n3nc(Cc4ncc(F)cc4F)nc23)ccc1=O [Example 67, 5-(5-amino-2-((3,5-difluoropyridin-2-yl)methyl)-7-(4-fluorophenyl)-[1,2,4]triazolo[1,5-c]pyrimidin-8-yl)-1-methylpyridin-2(1H)-one]	3200	22	21	13	–
